ChEMBL document CHEMBL1126189, “Synthesis and X-ray crystallographic analysis of quinazolinone cholecystokinin/gastrin receptor ligands” (J Med Chem, 1992)

Experiments:
[1] = target: T1, Gastrin/cholecystokinin type B receptor (Mus musculus) (UniProt P56481); assay: Evaluated for inhibition of [125I]-CCK-8S binding to cholecystokinin CCK-B receptor from mouse brain membranes […] (in vitro); conditions: 10 uM
T1 sequence (whole entry): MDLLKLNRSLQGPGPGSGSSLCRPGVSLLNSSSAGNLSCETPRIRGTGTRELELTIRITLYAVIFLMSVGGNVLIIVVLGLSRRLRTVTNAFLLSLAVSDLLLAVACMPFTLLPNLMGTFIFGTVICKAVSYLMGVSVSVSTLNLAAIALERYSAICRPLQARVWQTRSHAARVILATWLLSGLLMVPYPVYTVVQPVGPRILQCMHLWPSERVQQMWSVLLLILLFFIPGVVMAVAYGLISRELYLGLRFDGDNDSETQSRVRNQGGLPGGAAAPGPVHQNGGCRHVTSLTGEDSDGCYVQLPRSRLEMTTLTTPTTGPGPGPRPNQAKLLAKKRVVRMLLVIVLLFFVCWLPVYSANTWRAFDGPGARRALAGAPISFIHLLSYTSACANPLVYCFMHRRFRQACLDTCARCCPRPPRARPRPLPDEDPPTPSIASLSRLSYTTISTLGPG

[2] = target: T2, Gastrin/cholecystokinin type B receptor (Mus musculus, UniProt P56481); assay: Evaluated for inhibition of [125I]CCK-8S binding to cholecystokinin CCK-B receptor from mouse brain membranes […] (in vitro)
T2 sequence (P56481 whole entry): T1 sequence (whole entry)

SMILES	inhibition [1]	IC50 [2]
O=c1c2ccccc2nc(CCCc2ccccc2)n1-c1ccccc1	21%	
O=c1c2ccccc2nc(Cc2ccccc2)n1-c1ccccc1	6%	
CC(C)Oc1cccc(-n2c(C(C)Cc3c[nH]c4ccccc34)nc3ccccc3c2=O)c1 (centres undefined)		9100 nM
O=c1c2ccccc2nc(CCc2ccccc2)n1-c1ccccc1	27%	
CC(C)Oc1cccc(-n2c(/C=C/c3c[nH]c4ccccc34)nc3ccccc3c2=O)c1		430 nM
O=c1c2ccccc2nc(CCCc2c[nH]c3ccccc23)n1-c1ccccc1	20%	
O=c1c2ccccc2nc(Cc2c[nH]c3ccccc23)n1-c1ccccc1	36%	
CC(C)Oc1cccc(-n2c(CC(C)c3c[nH]c4ccccc34)nc3ccccc3c2=O)c1 (centres undefined)		70 nM
CC(C)Oc1cccc(-n2c(/C=C/c3c[nH]c4ccc(Br)cc34)nc3ccccc3c2=O)c1		1400 nM
